Measurements from ChEMBL document CHEMBL1201862, “PubChem BioAssay data set” (2004).
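Assay format: 96-well plates, 48-hour exposure. GI50 = concentration required for 50% inhibition of growth.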 Activity calls are given as the source filed them. Rule as the data show it: active = GI50 up to about 1.1 µM and inactive = higher. Positions of bridges follow the written chain, without caps; N, C: chain ends. Non-standard residues stand in square brackets, D forms with d. Residues, ends and D or L forms follow the SMILES beside them. Aib = CC(C)(N)C(=O)O; βAla = NCCC(=O)O

Tests used:
Experiment in all cases: NCI anticancer screen, dose series, 48 h
[1] = test system: A498
[2] = test system: BT-549
[3] = test system: EKVX
[4] = test system: HCT-116
[5] = test system: HL-60
[6] = test system: Hs-578T
[7] = test system: MDA-MB-231
[8] = test system: MDA-MB-435
[9] = test system: MDA-N
[10] = test system: Malme-3M
[11] = test system: PC-3
[12] = test system: SF-295
[13] = test system: SK-MEL-28
[14] = test system: SK-MEL-5
[15] = test system: SN12C
[16] = test system: TK-10
[17] = test system: SK-OV-3
[18] = test system: NCI-H226

Measured: GI50

Oc1ccc(-c2ccccc2)nn1
inactive: [1] > 100 µM | [2] > 100 µM | [3] > 100 µM | [4] > 100 µM | [5] > 100 µM | [6] > 100 µM | [7] > 100 µM | [8] > 100 µM | [9] > 100 µM | [10] > 100 µM | [11] > 100 µM | [12] > 100 µM | [13] > 100 µM | [14] > 100 µM | [15] > 100 µM | [16] > 100 µM

CC(C)(C)c1c2c(c(C(C)(C)C)c3c1OCN(Cc1ccccc1)C3)OCN(Cc1ccccc1)C2
inactive: [1] 6 µM | [2] 16.9 µM | [3] 12.7 µM | [4] 11.3 µM | [6] 20.4 µM | [7] 15.5 µM | [8] 28.5 µM | [9] 11.7 µM | [10] 18.7 µM | [11] 16.6 µM | [12] 15.2 µM | [13] 29.6 µM | [14] 8.87 µM | [17] 22.6 µM | [15] 15.4 µM | [16] 15 µM

COc1ccc(CCCNC(=O)Cc2cc(OC)c(OC)cc2CO)cc1OC
inactive: [1] > 100 µM | [2] > 100 µM | [3] > 100 µM | [4] > 100 µM | [5] > 100 µM | [6] > 100 µM | [7] > 100 µM | [8] > 100 µM | [9] > 100 µM | [10] > 100 µM | [18] > 100 µM | [11] > 100 µM | [13] > 100 µM | [14] > 100 µM | [15] > 100 µM | [16] > 100 µM

Cc1csc2nc3c(cnn3C)c(=S)n12
inactive: [2] 39.5 µM | [3] 14.9 µM | [4] > 100 µM | [6] 12.8 µM | [7] > 10 µM | [8] > 100 µM | [9] > 100 µM | [10] > 100 µM | [11] > 100 µM | [12] > 100 µM | [13] > 100 µM | [14] > 100 µM | [17] 61.8 µM | [15] 24.2 µM | [16] 80.5 µM

CCc1nc(N)nc(N)c1-c1ccc2nnn(O)c2c1
inactive: [1] > 100 µM | [2] > 100 µM | [3] > 100 µM | [4] > 83.8 µM | [5] > 100 µM | [6] > 100 µM | [7] > 100 µM | [8] > 100 µM | [9] > 100 µM | [18] > 100 µM | [11] > 100 µM | [12] > 100 µM | [13] > 100 µM | [14] > 100 µM | [17] > 100 µM | [15] > 100 µM | [16] > 100 µM

NC1=CN(Cc2ccccc2)C2=N/C(=C\c3ccccc3)C(=O)N12
inactive: [1] > 100 µM | [2] > 100 µM | [3] > 100 µM | [4] > 100 µM | [5] 26.1 µM | [6] > 100 µM | [7] > 100 µM | [8] 50.1 µM | [10] > 100 µM | [18] > 100 µM | [11] > 100 µM | [12] > 100 µM | [13] > 100 µM | [14] 66.5 µM | [17] > 100 µM | [15] > 100 µM | [16] > 100 µM

O/N=C1\CC2(N3CCOCC3)CCC1(c1ccccc1)CC2
inactive: [1] > 100 µM | [2] > 100 µM | [3] > 100 µM | [4] > 100 µM | [5] > 100 µM | [6] > 100 µM | [8] > 100 µM | [9] > 100 µM | [10] > 100 µM | [18] > 100 µM | [11] > 100 µM | [12] > 100 µM | [13] > 100 µM | [14] > 100 µM | [17] > 100 µM | [15] > 100 µM | [16] > 100 µM

Cc1ccc(S(=O)(=O)N2CCSCCSCCSCCN(S(=O)(=O)c3ccc(C)cc3)CC2)cc1
inactive: [1] > 100 µM | [2] > 100 µM | [3] > 100 µM | [4] > 100 µM | [5] > 100 µM | [6] > 100 µM | [7] > 100 µM | [8] > 100 µM | [9] > 100 µM | [18] > 100 µM | [12] > 100 µM | [13] > 100 µM | [14] > 100 µM | [17] > 100 µM | [15] > 100 µM | [16] > 100 µM

COC(=O)c1ccccc1C1CN=NC12Cc1cccc(C)c1C2=O (configuration not stated)
inactive: [1] 54.6 µM | [2] 42.4 µM | [3] 65.6 µM | [4] 37.4 µM | [5] 24.7 µM | [6] 40.4 µM | [7] > 100 µM | [8] 37.4 µM | [9] 46.7 µM | [10] 43.7 µM | [18] 49.7 µM | [12] 34.4 µM | [13] 68.2 µM | [14] 34.4 µM | [17] > 100 µM | [15] 36.1 µM | [16] 65.9 µM

CC1=NN2CCC(=O)N=C2S1
inactive: [2] > 100 µM | [3] > 100 µM | [4] > 100 µM | [5] > 100 µM | [6] > 100 µM | [7] > 100 µM | [8] > 100 µM | [9] > 100 µM | [10] > 100 µM | [18] > 100 µM | [11] > 100 µM | [12] > 100 µM | [13] > 100 µM | [14] > 100 µM | [17] > 100 µM | [15] > 100 µM | [16] > 100 µM

CN1C(=O)c2ccc3ccccc3c2C1=O
inactive: [1] 47.3 µM | [2] > 100 µM | [3] 14 µM | [4] 77.4 µM | [5] 28.1 µM | [6] 73.1 µM | [7] > 100 µM | [8] > 100 µM | [9] > 100 µM | [18] > 100 µM | [11] > 100 µM | [12] > 100 µM | [13] > 100 µM | [14] > 100 µM | [17] > 100 µM | [15] > 100 µM | [16] > 100 µM

CC1(C)NC(=O)C(NC(=O)C(N)CC(=O)O)CCCCNC(=O)CCNC1=O (configuration not stated) (H-DK[Aib][βAla]; lactam 2-C; configuration not given here)
inactive: [1] > 100 µM | [2] > 100 µM | [3] > 100 µM | [4] > 100 µM | [6] > 100 µM | [7] > 100 µM | [8] > 100 µM | [9] > 100 µM | [10] > 100 µM | [18] > 100 µM | [11] > 100 µM | [12] > 100 µM | [13] > 100 µM | [14] > 100 µM | [17] > 100 µM | [16] > 100 µM
